Reference: US20230310445A1, “LOX ENZYME INHIBITING METHODS AND COMPOSITIONS” (ANOVIA BIOSCIENCES, INC., priority 2020, published 2023)

Experiments:
[1] = target: T1, Recombinant human LOXL2 (lysyl oxidase like 2) (Homo sapiens, UniProt Q9Y4K0); test: LOXL2 inhibition assay (fluorometric, cadaverine/Amplex Red/HRP); assay type: biochemical; settings: IC50 class; recombinant human LOXL2, cadaverine substrate; read-out: Activity Range LOXL2
T1 construct: purchased R&D systems
T1 sequence (Q9Y4K0 26-774): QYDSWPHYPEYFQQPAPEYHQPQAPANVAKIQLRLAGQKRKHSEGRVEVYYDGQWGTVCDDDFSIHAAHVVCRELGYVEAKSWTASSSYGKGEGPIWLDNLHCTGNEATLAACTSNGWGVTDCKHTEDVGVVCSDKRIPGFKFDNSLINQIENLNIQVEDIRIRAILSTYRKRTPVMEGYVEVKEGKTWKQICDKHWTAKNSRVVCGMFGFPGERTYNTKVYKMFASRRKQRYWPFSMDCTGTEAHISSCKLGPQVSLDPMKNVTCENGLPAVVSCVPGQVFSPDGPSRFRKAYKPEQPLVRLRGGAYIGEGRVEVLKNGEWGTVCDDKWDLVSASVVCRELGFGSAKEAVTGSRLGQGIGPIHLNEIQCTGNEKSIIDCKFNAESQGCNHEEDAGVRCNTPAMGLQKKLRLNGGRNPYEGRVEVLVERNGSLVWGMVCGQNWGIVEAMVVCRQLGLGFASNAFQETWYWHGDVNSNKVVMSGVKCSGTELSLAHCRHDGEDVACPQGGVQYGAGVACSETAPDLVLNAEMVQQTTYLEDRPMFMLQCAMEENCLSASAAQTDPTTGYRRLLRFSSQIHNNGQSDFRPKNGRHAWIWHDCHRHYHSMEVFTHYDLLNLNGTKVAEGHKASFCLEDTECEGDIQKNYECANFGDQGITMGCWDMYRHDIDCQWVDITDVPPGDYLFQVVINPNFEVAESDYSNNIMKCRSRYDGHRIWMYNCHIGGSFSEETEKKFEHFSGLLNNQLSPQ
How it was run: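 Both enzymes assayed in 1.2 M urea, 50 mM sodium borate pH 8.0, 10 mM CaCl, with 30 min compound–enzyme preincubation at 37° C before cadaverine/Amplex Red/HRP addition. Fluorescence followed 60 min at 37° C; linear-slope rates, background-subtracted, as % of DMSO control, fitted by 4-parameter variable-slope curve (bottom fixed at 0).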

[2] = target: T2, Recombinant human LOXL3 (lysyl oxidase like 3) (Homo sapiens, UniProt P58215); test: LOXL3 inhibition assay (fluorometric, cadaverine/Amplex Red/HRP); assay type: biochemical; settings: IC50 class; recombinant human LOXL3, cadaverine substrate; read-out: Activity Range LOXL3
T2 construct: purchased R&D systems
T2 sequence (P58215 26-753): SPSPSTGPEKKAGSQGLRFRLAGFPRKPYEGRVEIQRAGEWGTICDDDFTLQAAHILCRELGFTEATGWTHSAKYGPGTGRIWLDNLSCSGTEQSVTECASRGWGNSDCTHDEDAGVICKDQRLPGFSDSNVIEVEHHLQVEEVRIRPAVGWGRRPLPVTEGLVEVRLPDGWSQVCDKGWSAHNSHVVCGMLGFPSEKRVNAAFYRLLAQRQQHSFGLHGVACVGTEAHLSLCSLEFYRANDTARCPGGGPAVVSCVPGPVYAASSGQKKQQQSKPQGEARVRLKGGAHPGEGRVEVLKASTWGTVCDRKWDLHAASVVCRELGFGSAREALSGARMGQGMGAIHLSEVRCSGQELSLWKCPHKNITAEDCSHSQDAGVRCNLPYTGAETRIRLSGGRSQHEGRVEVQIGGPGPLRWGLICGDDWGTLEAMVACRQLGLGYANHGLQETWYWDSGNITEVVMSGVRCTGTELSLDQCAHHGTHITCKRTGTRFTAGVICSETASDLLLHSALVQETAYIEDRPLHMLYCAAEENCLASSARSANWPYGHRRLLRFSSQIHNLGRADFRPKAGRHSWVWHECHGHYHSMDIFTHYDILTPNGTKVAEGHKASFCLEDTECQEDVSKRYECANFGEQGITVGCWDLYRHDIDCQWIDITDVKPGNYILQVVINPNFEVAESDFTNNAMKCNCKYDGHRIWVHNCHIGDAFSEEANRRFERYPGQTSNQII
Description: The ability of compounds to inhibit one or more of the lysyl oxidases LOXL2 and/or LOXL3 was determined using a fluorometric assay. This assay measures the activity of lysyl oxidases by coupling the reaction with horseradish peroxidase-catalyzed […]. The activity assay protocol uses cadaverine as substrate that releases hydrogen peroxide upon transformation by the specific LOX family enzyme present in the sample. Hydrogen peroxide is in turn detected using a red fluorescence substrate for HRP-coupled reactions (Amplex Red Enzyme Assays, Thermo Scientific Fisher). This leads to increase in fluorescence that can be easily detected at Ex/Em=540/590 nm in a fluorescence microplate reader.
Enzymes: Recombinant human LOXL2 (lysyl oxidase like 2) and recombinant human LOXL3 (lysyl oxidase like 3) were purchased from R&D systems and assays were performed in 1.2 M urea, 50 mM sodium borate buffer pH 8.0, and 10 mM CaCl.
Reaction: Final concentration in the LOXL2 and LOXL3 assays were as following and performed in a total volume of […]:
Experimental procedure: 5 μl of freshly prepared reaction buffer were delivered to reaction wells. Compounds were resuspended in 100% DMSO at 10 mM and delivered into buffer using acoustic technology (Echo550; nanoliter range). A 3× solution of LOXL2 or LOXL3 in reaction buffer was prepared (“enzyme solution”) and 5 μL of enzyme solution was added into the reaction wells. Buffer only was added to column 1 for no protein control. Reactions were incubated for 30 minutes at 37° C. A 3×mixture of cadaverine, Amplex Red, and HRP (“Substrate/Detection Mix) was prepared and subsequently 5 μL of the mixture added to each reaction well. Progress of reactions was monitored for 60 minutes at 37° C. using Clariostar plate reader (ex 530-12, ems 600-40). For all activity assays, pan-LOX inhibitor CCT365623 (Tang et al, 2017) and LOXL2/LOXL3 inhibitor PAT-1251 (PharmaKea) were included as standards.
Data analysis: Slope of the linear portion of the progress curve was calculated using Clariostar software. Typical analysis interval was between 8-30 min, but varied between experiments. The background subtracted signals (No protein wells are considered as background) were converted to % activity relative to DMSO controls. Data was analyzed using GraphPad Prism 4 with “sigmoidal dose-response (variable slope)”; 4 parameters with Hill Slope. Constraints: Bottom=Constant equal to 0. Top=Must be less than 120.

Structure (SMILES)	IC50 [1]	IC50 [2]
CS(=O)(=O)[C@H]1C[C@@H](S(=O)(=O)c2cccc(CN)c2)CN(c2ccccc2)C1 (racemic) [Example 23, cis-(3-((-5-(Methylsulfonyl)-1-phenylpiperidin-3-yl)sulfonyl)phenyl)methanamine]	≤ 500 nM	1000 to 30000 nM
CS(=O)(=O)N1C[C@H](Oc2cccc(CN)c2)C[C@H](c2ccccc2F)C1 (racemic) [Example 70, cis-(3-((5-(2-Fluorophenyl)-1-(methylsulfonyl)piperidin-3-yl)oxy)phenyl)methanamine 2,2,2-trifluoroacetate]	≤ 500 nM	1000 to 30000 nM
CN(C)C(=O)N1C[C@@H](c2ccccc2)C[C@@H](S(=O)(=O)c2cccc(CN)c2)C1.O=C(O)C(F)(F)F (racemic) [Example 74, cis-3-((3-(Aminomethyl)phenyl)sulfonyl)-N,N-dimethyl-5-phenylpiperidine-1-carboxamide 2,2,2-trifluoroacetate]	≤ 500 nM	1000 to 30000 nM
NCc1ccc(S(=O)(=O)N2C[C@H](C(=O)N3CCS(=O)(=O)CC3)C[C@@H](c3ccccc3)C2)s1.O=C(O)C(F)(F)F (racemic) [Example 75B, trans-(1-((5-(Aminomethyl)thiophen-2-yl)sulfonyl)-5-phenylpiperidin-3-yl)(1,1-dioxidothiomorpholino)methanone 2,2,2-trifluoroacetate]	≤ 500 nM	–
CS(=O)(=O)[C@@H]1C[C@@H](S(=O)(=O)c2cccc(CN)c2)CN(c2ccccc2)C1 (racemic) [Example 79, trans-(3-((-5-(Methylsulfonyl)-1-phenylpiperidin-3-yl)sulfonyl)phenyl)methanamine]	≤ 500 nM	1000 to 30000 nM
NCc1cccc(S(=O)(=O)N2C[C@H](C(=O)N3CCS(=O)(=O)CC3)C[C@@H](c3ccccc3)C2)c1 (racemic) [Example 85, trans-(1-((3-(Aminomethyl)phenyl)sulfonyl)-5-phenylpiperidin-3-yl)(1,1-dioxidothiomorpholino)methanone 2,2,2-trifluoroacetate]	≤ 500 nM	1000 to 30000 nM
CS(=O)(=O)N1CCN(C(=O)[C@H]2C[C@@H](c3ccccc3F)CN(S(=O)(=O)c3ccc(CN)s3)C2)CC1.O=C(O)C(F)(F)F (racemic) [Example 91, cis-(1-((5-(Aminomethyl)thiophen-2-yl)sulfonyl)-5-(2-fluorophenyl)piperidin-3-yl)(4-(methylsulfonyl)piperazin-1-yl)methanone 2,2,2-trifluoroacetate]	≤ 500 nM	–
CS(=O)(=O)[C@H]1C[C@@H](S(=O)(=O)c2cccc(CN)c2)CN(c2ccccc2F)C1 (racemic) [Example 92, cis-(3-((-1-(2-Fluorophenyl)-5-(methylsulfonyl)piperidin-3-yl)sulfonyl)phenyl)methanamine 2,2,2-trifluoroacetate]	≤ 500 nM	1000 to 30000 nM
NCc1cccc(S(=O)(=O)N2C[C@H](C(=O)N3CCS(=O)(=O)CC3)C[C@@H](c3ccccc3)C2)n1 (racemic) [Example 115T, trans-(1-((6-(Aminomethyl)pyridin-2-yl)sulfonyl)-5-phenylpiperidin-3-yl)(1,1-dioxidothiomorpholino)methanone 2,2,2-trifluoroacetate]	1000 to 30000 nM	> 30000 nM
NCc1ccc(S(=O)(=O)N2C[C@@H](C(=O)N3CCOCC3)C[C@@H](C3CCCCC3)C2)s1.O=C(O)C(F)(F)F (racemic) [Example 120, cis-(1-((5-(Aminomethyl)thiophen-2-yl)sulfonyl)-5-cyclohexylpiperidin-3-yl)(morpholino)methanone 2,2,2-trifluoroacetate]	≤ 500 nM	–
NCc1ccnc(S(=O)(=O)N2C[C@@H](C(=O)N3CCS(=O)(=O)CC3)C[C@@H](c3ccccc3)C2)c1 (racemic) [Example 134, cis-(1-((4-(Aminomethyl)pyridin-2-yl)sulfonyl)-5-phenylpiperidin-3-yl)(1,1-dioxidothiomorpholino)methanone 2,2,2-trifluoroacetate]	≤ 500 nM	≤ 500 nM
NCc1cccc(S(=O)(=O)N2C[C@@H](C(=O)N3CCOCC3)C[C@@H](C3CCCCC3)C2)c1 (racemic) [Example 139, cis-(1-((3-(Aminomethyl)phenyl)sulfonyl)-5-cyclohexylpiperidin-3-yl)(morpholino)methanone]	500 to 1000 nM	1000 to 30000 nM
NCc1cccc(S(=O)(=O)N2C[C@@H](C(=O)N3CCS(=O)(=O)CC3)C[C@@H](C3CCCCC3)C2)c1 (racemic) [Example 140, cis-(1-((3-(Aminomethyl)phenyl)sulfonyl)-5-cyclohexylpiperidin-3-yl)(1,1-dioxidothiomorpholino)methanone]	500 to 1000 nM	1000 to 30000 nM
CN(C)C(=O)[C@H]1C[C@@H](C2CCCCC2)CN(S(=O)(=O)c2cc(CN)ccn2)C1 (racemic) [Example 144, cis-1-((4-(Aminomethyl)pyridin-2-yl)sulfonyl)-5-cyclohexyl-N,N-dimethylpiperidine-3-carboxamide 2,2,2-trifluoroacetate]	≤ 500 nM	≤ 500 nM
NCc1ccnc(S(=O)(=O)N2C[C@@H](C(=O)N3CCOCC3)C[C@@H](C3CCCCC3)C2)c1 (racemic) [Example 145, cis-(1-((4-(Aminomethyl)pyridin-2-yl)sulfonyl)-5-cyclohexylpiperidin-3-yl)(morpholino)methanone 2,2,2-trifluoroacetate]	≤ 500 nM	500 to 1000 nM
NCc1ccc(S(=O)(=O)N2C[C@H](C(=O)N3CCOCC3)C[C@H](c3ccccc3)C2)s1 [Example 13B, ((3R,5R)-1-((5-(aminomethyl)thiophen-2-yl)sulfonyl)-5-phenylpiperidin-3-yl)(morpholino)methanone]	≤ 500 nM	–
